Like-named read-outs stand apart in the source and are kept apart here.
What was measured:
[1] = system: neutrophil gelatinase-associated lipocalin (NGAL); test: Kidney NGAL immunohistochemistry in fluvastatin-fed mice given mevalonate and lipopolysaccharide (Example 6); type: in vivo, mouse; conditions: mevalonate 30 mg/kg i.p. 4 days
Protocol: (§1) In order to examine whether administration of an isoprenoid-based compound reduces statin-induced adverse effects even in vivo, 100 mg of statin (fluvastatin) was added to 1 kg of feed, and the mixture was fed to 8-week-old C57BL6/J mice for 14 days. Subsequently, mevalonate was administered intraperitoneally to the mice at a dose of 30 mg per kg of mouse body weight for 4 consecutive days, and then lipopolysaccharide (SIGMA) was administered intraperitoneally to mice at a lipopolysaccharide dose of 12 mg per kg of mouse body weight, thereby producing oxysterol in the mouse body. 72 hours after administration of the lipopolysaccharide, the mice were euthanized, and then kidney tissue was extracted by performing cardiac perfusion with 4% paraformaldehyde in DPBS (Dulbecco's phosphate-buffered saline). The extracted kidney tissue was subjected to H & E (Hematoxylin & Eosin) staining, PAS (periodic acid-Schiff) staining and immunohistochemistry of neutrophil gelatinase-associated lipocalin (NGAL) that is an early diagnostic marker of acute renal failure, thereby determining whether acute kidney damage and acute renal failure would occur. In addition, the concentrations of total cholesterol, high-density lipoprotein (HDL) and low-density lipoprotein (LDL) were measured.

[2] = Total cholesterol, HDL and LDL concentrations in mice (Example 6); type: in vivo, mouse; conditions: statin, oxysterol and mevalonate all administered
Protocol: as §1

C57BL6/J mice = type: in vivo, mouse; conditions: for therapeutic effect on kidney damage (H & E, PAS): mevalonate 30 mg/kg i.p. 4 days
Protocol: as §1

[3] = system: human kidney tubule cell line HK-2; test: LDH assay of cell death in HK-2 cells treated with statin and/or oxysterol; type: cell-based; conditions: 1 μM zaragozic acid with 10 μg/mL 25-hydroxycholesterol
Protocol: To analyze the relationship between statins and oxysterols, the human kidney tubule cell line HK-2 (human kidney-2 cell line; ATCC CRL-2190™) was seeded into a 24-well plate at a density of 1×10^5 per well. […] Subsequently, the cells were cultured in an incubator at 37° C. under 5% CO2 for 72 hours, and then the degree of cell death in each well was analyzed using an LDH assay kit (Takara, Cat #. MK401).
In order to examine whether the same results appear even in the presence of various types of oxysteols, an experiment was performed in the same manner as Example 1.1. As statin, 5 μM of atorvastatin was used, and as oxysterols, 0.1 μg/mL of 25-hydroxycholesterol, 7-ketocholesterol, cholesterol 5,6-epoxide, 24-hydroxycholesterol and 27-hydroxycholesterol were used.
In order to examine whether isoprenoid-based compounds can reduce adverse effects which are induced by co-administration of oxysterol and statin, the cell line was treated with oxysterol (0.1 μg/mL of 25-hydroxycholestyerol) and statin (5 μM of atorvastatin) in the same manner as Example 1.1, and treated with 10 μM of farnesyl pyrophosphate, 200 μM of mevalonate or 10 μM of geranylgeranyl pyrophosphate, which is an isoprenoid-based compound.

Row | Compound | expression of NGAL ([1]; oxysterol generation induced after administration of statin) | therapeutic effect on expression of NGAL ([1]; oxysterol generation induced without statin) | concentration of low-density lipoprotein [2] | concentration of total cholesterol [2] | therapeutic effect on kidney damage (H & E, PAS) (C57BL6/J mice; group with statin and oxysterol co-administered) | therapeutic effect on kidney damage (H & E, PAS) (C57BL6/J mice; kidney damage caused by oxysterol formation, no statin) | damage to kidney tissue (C57BL6/J mice; statin, oxysterol and mevalonate all administered) | adverse effects / viability of the cells [3]
1 | CC(O)(CCO)CC(=O)O (centres unmarked) [mevalonate] | the expression of NGAL significantly decreased | showed no significant therapeutic effect | decreased | decreased | exhibited a significant effect | showed no therapeutic effect | kidney tissue was not damaged | 
2 | C=C(CC[C@]12O[C@H](C(=O)O)[C@@](O)(C(=O)O)[C@](C(=O)O)(O1)[C@H](OC(=O)/C=C/[C@@H](C)C[C@@H](C)CC)[C@H]2O)[C@@H](OC(C)=O)[C@H](C)Cc1ccccc1 [zaragozic acid] |  |  |  |  |  |  |  | the adverse effects were reduced to some degrees, and thus the viability of the cells increased
